Measured values reported in patent publication US20110105436A1, “HETEROARYL COMPOUNDS, COMPOSITIONS, AND METHODS OF USE IN CANCER TREATMENT” (AUCKLAND UNISERVICES LIMITED, priority 2008, published 2011).

Legend:
yeast deletion strains = experiment: Killing curves of yeast deletion strains; type: cell-based, S. cerevisiae
From the text: Screen in yeast and killing curves. Genotypes of the parental yeast strain BY4743, construction of the homozygous diploid deletion strains, and construction of the homozygous diploid deletion pool have been described previously (Thomas, G. V., et al., Nat. Med. 2006, 12, 122). A mutant pool of 4728 nonessential homozygous diploid deletion strains was used. The parental diploid strain BY4743 was used as control in survival and complementation assays. […]
A. Killing curves for 8 deletion yeast strains. Wild-type, ALG5, APS1, CLA4, DRS2, OSH3, VPS20, VPS25, YPT31 were incubated with STF-62247 (0-100 μM) for 1 hour and colony formation was evaluated after two days. Each point of the survival is calculated by the average of two different experiments in triplicate and as the percent of treated on untreated plate. B. Quantitative real time PCR for CHMP6, PAK2, RAB11a, OSBP3 and ALG5 in RCC4 and RCC4/VHL. Histogram is calculated by the average of three different experiments in triplicate as the percent of RCC4/VHL on RCC4 cells. […] Colony formation was evaluated as described before. *p<0.05 represents the difference between VHL cells and VHL with siRNA in presence of 5 μM of STF-62247.

[1] = tested on: RCC4, RCC4/VHL, SN12C and SN12C-VHL shRNA cells; experiment: Clonogenic cell survival assay; type: cell-based
Description: Clonogenic Cell Survival Assay. RCC4, RCC4/VHL, SN12C and SN12C-VHL shRNA were plated at 300 cells per 60 mm tissue culture dish. The following day, vehicle or STF-62247 was added and cells were incubated in the presence of drug for 10 days in RCC4 and RCC4/VHL and 7-10 days for SN12C and SN12C-VHL shRNA. The colonies were stained with crystal violet, and quantified. Each experiment was performed at least three times in triplicate.
(§1) A. RCC4 and RCC4/VHL cells were labeled with EYFP and the effect of STF-62247 was monitored by fluorescence in each cell type separately. Cells are pseudocolored. B. Clonogenic assay in RCC4, RCC4/VHL, SN12C, SN12C-VHL shRNA cells in the presence of STF-62247 (0-30 μM). Each point of the cell survival is calculated by the average of three different experiments in triplicate as the percent of treated on untreated plate. The error bars represented the standard error of the mean (SEM). C. Upper Panel, clonogenic assay in RCC4 infected with HIF-1α or HIF-2α shRNA by retroviral infection in presence of drug in same conditions described above. Bottom panel, HIF-1α or HIF-2α protein expression evaluated by western blot in RCC4 cells with HIF-1α or HIF-2α shRNA. Tubulin is used as loading control. […] Tumor volume was measured every 2-3 days and data are represented in fold. Five tumors in each condition were analyzed where * p<0.05, **p<0.01 and ***p<0.005.

SN12C-VHL shRNA tumors = experiment: Tumor growth of SN12C-VHL shRNA cells in scid mice; type: in vivo; conditions: VHL-deficient tumors, daily intraperitoneal treatment, FIG. 1E
Description: In vivo studies. 2−3×10^6 SN12C and SN12C-VHL shRNA cells were injected in male scid mice 4-6 weeks old. When tumor volume reached 150 mm^3, mice were randomized into vehicle control group or STF-62247 treatment group. Mice were treated every day with […] of STF-62247 intraperitoneally. Tumor growth was measured every 2-3 days after the drug treatment was started.
as §1

RCC4 cells = experiment: XTT assay in VHL-deficient RCC4 cells; type: cell-based
In short: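 RCC4 cells with and without VHL seeded at 5000/well, then exposed next day to serially diluted compound (DMSO vehicle) for four days. Viability read by XTT (0.3 mg/ml) with PMS, 1-2 h at 37° C, absorbance at 450 nm.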

Cc1cccc(Nc2nc(-c3ccncc3)cs2)c1 [Compound 5, N-(3-Methylphenyl)-4-(4-pyridinyl)-1,3-thiazol-2-amine]
sensitivity of yeast deletion strain (yeast deletion strains; ATG8 deletion strain, data not shown): did not exhibit sensitivity to STF-62247 | toxicity in yeast deletion strains (yeast deletion strains; CLA4, VPS20, ALG5, OSH3 and YPT31 deletion strains, 0-100 μM, 1 h): significant toxicity in response to STF-62247 | dependence of cytotoxicity on HIF ([1]; RCC4 with HIF-1α or HIF-2α shRNA, RCC4/VHL with stable HIF-2α): induces cytotoxicity in VHL-null cells in a HIF-independent manner | selective toxicity in clonogenic assays ([1]; VHL-deficient versus VHL wild-type cells, 0-30 μM, FIG. 1B): selectively toxic to VHL-deficient cells compared to their VHL wild-type counterparts | tumor growth (SN12C-VHL shRNA tumors): significantly reduced tumor growth in VHL-deficient cells | IC50 (RCC4 cells; Homo sapiens, 96 h, Table 1, XTT assay, VHL-deficient RCC4 cells, four days): 2100 nM | viability in a short term assay (RCC4 cells; XTT, 0-40 μM, FIG. 7B): decreases the viability of VHL-deficient cells in a short term assay
